Test results reported in patent US20180085385A1, “GLUCOSE-SENSITIVE CELL PROTECTING AGENT” (THE UNIVERSITY OF TOKYO, priority 2015, published 2018).

Legend:
[1] = tested on: orexin nerve cells differentiated from human iPS cells; assay: Protection or recovery of orexin nerve cells under high glucose by various ManNAc derivatives (Example 3); type: cell-based; conditions: for recovery activity of orexin production (Hcrt expression intensity): 12-day course: high glucose 25 mM from day 0, compound 1 μM added from +day 8, harvested +day 12
Protocol: (§1) Total RNA was extracted from the harvested cells by using RNeasy plus Mini Kit (QIAGEN). Then, using SuperScript III First Strand Synthesis System (Invitrogen), a reverse transcription reaction was performed in a reaction mixture containing total RNA (1 μg) and Oligo (dT), whereby cDNA was synthesized.
(§2) PCR reaction was performed on a 10 μl scale, 1 U LA-Tag DNA Polymerase (Takara) was added to 0.5 μl of cDNA, 5 μl of 2×GC Buffer I, 200 μM of each dNTP, 1.5 mM MgCl2 and final concentration 0.2 μM of each primer and, after heat denaturation at 95° C. for 3 min, and PCR was performed under the conditions of (95° C. 30 sec, 55° C. 30 sec, 72° C. 30 sec)×35 cycles (20 cycles for Actb). The primers used are shown below.
(§3) Each PCR product was electrophoresed on 2% agarose gel and stained with ethidium bromide, and the bands were observed by UV irradiation.
The orexin nerve cells were cultured in a neuronal differentiation medium (G-MEM+10% KSR (KnockOut Serum Replacement, Invitrogen)) for 8 days or 12 days, and maintained in vitro. In this case, the glucose concentration of the medium was set to a high glucose concentration (25 mM), ManNAc or various ManNAc derivatives (each 1 μM) were added, and the cells were cultured. In the 8-day culture course, glucose and ManNAc or various ManNAc derivatives were added to the medium from the start of the culture (+day 0), the cells were harvested on +day 8 the orexin expression was analyzed. As a control, orexin nerve cells cultured at low glucose concentration (5 mM) were prepared. In the 12-day culture course, high glucose was added from the start of the culture (+day 0), ManNAc or various ManNAc derivatives were added to the medium from +day 8 from the start of the culture, the cells were harvested on +day 12, and the orexin expression was analyzed. As a control, orexin nerve cells cultured at low glucose concentration (5 mM) from +day 8 from the start of the culture were prepared. According to the expression analysis by the RT-PCR method described in Reference Example 1, the expression of Hcrt gene was examined. Based on the expression of Hcrt gene in orexin nerve cells at the start of the culture, expression of Hcrt gene in orexin nerve cells after culture with the addition of ManNAc or various ManNAc derivatives under high glucose conditions is shown by expression intensity (FIG. 3).

[2] = tested on: orexin nerve cells differentiated from human iPS cells; assay: Disappearance of orexin nerve cells under high glucose concentration and protection or recovery from disappearance (Example 1); type: cell-based; conditions: for recovery of orexin nerve cells (expression of orexin): culture under high glucose concentration extended for 2 or 4 more days, compound then added to the medium; for disappearance of the orexin nerve cells (orexin (Hcrt) expression): high glucose concentration (25 mM), 8 days, addition concentration 10 μM ManNAc, 1 μM ManNAcF
Protocol: as §1, §2, §3
The orexin nerve cells were cultured in a neuronal differentiation medium (G-MEM+10% KSR (Knockout Serum Replacement, Invitrogen)) for 8 days, and maintained in vitro. In this case, the cells were divided based on the glucose concentration in the medium into two groups having low glucose concentration (5 mM) and high glucose concentration (25 mM) and cultured.

[3] = tested on: human iPS cells; assay: Orexin cell induction from human iPS cells (SDIA differentiation culture, Hcrt RT-PCR); type: cell-based; conditions: for orexin cell induction activity (Hcrt expression): 8, 40, 200 nM, 1 μM and 5 μM instead of 1.0 mM ManNAc, compared to ManNAc
Protocol: Human iPS cell line 201B7 (HSP0001) was obtained from BioResource Center, RIKEN, Japan via National BioResource project (MEXT, Japan). Human iPS cells were maintained on a feeder layer of mitomycin C-treated STO/Neo resistant/LIF(SNL) feeder cells in primates ES medium (ReproCELL) supplemented with 5 ng/mL recombinant human bFGF (Wako). For differentiation induction into nerve by SDIA and BMP4 system, human iPS cells were cocultured with PA6 for 20 days. 5 nM BMP4 was supplemented from day 7. From the start of the differentiation culture (day 0), ManNAc was added to a neuronal differentiation medium to 1.0 mM, and the medium was exchanged on days 7, 10 and 14 of differentiation culture. In addition, 5 nM recombinant human BMP4 (Wako) was added from day 7 of the differentiation culture. On day 14 of the differentiation culture, EX-527 (SIGMA-ALDRICH) was added to neuronal differentiation medium to 50 nM, or BADGP (SIGMA-ALDRICH) was added to neuronal differentiation medium to 5 mM, and the cells were harvested on day 20 of the differentiation culture and subjected to RT-PCR.
as §1, §2, §3
According to the method described in Reference Example 1 except that ManNAc, ManNAcF, 5S-ManNAc, 5S-ManNAcF, ManNCOOMe or ManNCOOEt (8, 40, 200 nM, 1 μM and 5 μM, respectively) was added instead of 1.0 mM ManNAc, orexin cells were induced from human iPS cells. The expression of orexin gene (Hcrt) in the cells induced under the various conditions was examined.

[4] = tested on: renal proximal tubule epithelial cells derived from type II diabetes patients (D-RPTEC); assay: Histone O-GlcNAc modification level in D-RPTEC by immunofluorescence staining; type: cell-based, human; conditions: D-RPTEC cultured 96 hr under high glucose (25 mM glucose)
Protocol: Normal human renal proximal tubule epithelial cells and RPTEC derived from type II diabetes patients (D-RPTEC) were purchased from Lonza. RPTEC and D-RPTEC maintained with REGM™ Renal Epithelial Cell proliferation Medium Bullet Kit (Lonza) were each seeded in a 4-well dish at 1×10^4 cells per 1 well, and cultured for 4 days in a control medium or high glucose medium (adjusted to final concentration of 25 mM with 2.5 M glucose solution).
The cultured cells were fixed with 4% para-formaldehyde for 20 min and, after a permeabilization treatment with 0.2% TritonX-100-PBS solution, treated overnight with a blocking solution [PBS(−) containing 5% bovine serum-derived albumin (BSA), 0.1% Tween20, 0.2% TritonX-100] at 4° C. Then, the cells were reacted with anti-histone O-GlcNAc antibody (20B2) diluted with 5% BSA-PBS(−)-0.1% Tween20 at 4° C. overnight, reacted with secondary antibody diluted with PBS(−) at room temperature for 1 hr. The nucleus was stained with 1 μg/ml DAPI (Dojindo) at room temperature for 20 min, mounted in mountant (VECTASHIELD), and slides were prepared. Observation was performed with an integrated confocal laser microscope (FV10i, OLYMPUS). After obtaining images, the number of O-GlcNAc signals in the nucleus was measured by image analysis software Cell Profiler (www.cellprofiler.org), and statistical processing was performed by Wilcoxon rank-sum test. […]

[5] = tested on: Gne/Mnk M712T homozygous mutant mouse; conditions: mutant mice otherwise did not survive beyond age 3 after birth; cited from earlier work
[6] = tested on: orexin nerve cells in the brain of diabetic model mice (db/db mouse); assay: Protection of nerve cells from disappearance at individual level, high fat feed db/db mouse, in situ hybridization; type: in vivo; conditions: high fat feed 6 to 8 weeks of age, 5 μg/μl ManNAc containing drinking water
Protocol: To confirm effectiveness of ManNAc for nerve cell protection at an individual level, the number of orexin nerve cells and orexin expression were examined using genetically obese mouse (db/db mouse, hetero mouse as control, all male) (each group n=6). The breeding conditions of each group (6-8 weeks old) are as described below. […]
high fat feed+drinking water group high fat feed+5 μg/μl ManNAc containing drinking water group normal food+drinking water group normal food+5 μg/μl ManNAc containing drinking water group
Three individual mice from each group mentioned above were subjected to Nembutal anesthesia, and perfusion was fixed with formamide fixative (Genostaff). The brain was taken out, embedded in paraffin, and sections with 6 μm thickness in the sagittal direction were prepared. […]
was cloned into […] vector (Promega), and using DIG RNA Labeling Mix (Roche) and the plasmid as a template, digoxigenin-labeled RNA probe was prepared. […] The cells expressing orexin gene were counted, and the mean of 3 individuals and standard error were determined.

Structure (SMILES) | recovery activity of orexin production (Hcrt expression intensity) [1] | recovery of orexin nerve cells (expression of orexin) [2] | orexin cell induction activity (Hcrt expression) [3] | also measured
CC(=O)NC1C(O)SC(CO)[C@@H](O)[C@@H]1O (stereo partly drawn) [5S-ManNAc] | low activity | – | – | –
CC(=O)N[C@H]1[C@@H](OCc2ccccc2)O[C@H](CO)[C@H](O)[C@@H]1O [BADGP, reference compound] | – | completely ineffective | – | –
NC(=O)C1CCCc2c1[nH]c1ccc(Cl)cc21 (stereo not shown) [EX-527, reference compound] | – | completely ineffective | – | –
CC(=O)N[C@@H]1C(O)O[C@H](CO)[C@@H](O)[C@@H]1O (stereo partly drawn) [ManNAc, N-acetyl-D-mannosamine] | higher | expression of orexin was observed | – | disappearance of the orexin nerve cells (orexin (Hcrt) expression) [2]: disappearance of the orexin nerve cells could be avoided; expression of orexin gene (Hcrt) ([3]; 1.0 mM ManNAc from day 0, EX-527 50 nM or BADGP 5 mM from day 14, harvested day 20): expression of Hcrt was observed; histone O-GlcNAc modification level [4]: increase in the histone O-GlcNAc modification level was observed; survival of Gne/Mnk M712T homozygous mutant mice [5]: rescued the mice; decrease in the number of orexin nerve cells and the orexin gene expression [6]: suppressed
O=C(CF)NC1C(O)OC(CO)[C@@H](O)[C@@H]1O (stereo partly shown) [ManNAcF] | highest activity | expression of orexin was observed | higher orexin cell induction activity as compared to ManNAc | disappearance of the orexin nerve cells (orexin (Hcrt) expression) [2]: disappearance of the orexin nerve cells could be avoided
CCOC(=O)NC1C(O)OC(CO)[C@@H](O)C1O (stereo partly shown) [ManNCOOEt] | low activity | – | higher orexin cell induction activity as compared to ManNAc | –
COC(=O)NC1C(O)OC(CO)[C@@H](O)C1O (stereo partly shown) [ManNCOOMe] | low activity | – | higher orexin cell induction activity as compared to ManNAc | maintenance of orexin production (Hcrt expression intensity) ([1]; 8-day course: high glucose 25 mM and compound 1 μM from +day 0, harvested +day 8): orexin production was maintained except for ManNCOOMe
